“Also recorded” adds a separate entry of the source. No end group written: not given here.
What was measured:
[1] = system: H. pylori; assay: H. pylori growth kinetics in liquid media (optical density); format: cell-based, Helicobacter pylori; conditions: peptide added to liquid media at increasing concentrations, microaerophilic, up to 48 h
[2] = system: H. pylori; assay: Cold inhibition assay: competition on 125I-labeled gastrin uptake by H. pylori; format: binding, Helicobacter pylori; conditions: 500 nmol/l 125I-labeled gastrin, increasing concentrations of unlabeled peptide, 45 min, 37° C.
Method: Bacteria were incubated in the presence of 500 nmo/l ^125I-labeled gastrin and increasing concentrations of either unlabeled gastrin (G), CCK-8 (CCK), pentagastrin (Pen), somatostatin (Som) or EGF for 45 min. Bacteria were washed and radioactivity remaining in bacterial pellets was determined. One experiment representative of three.
For the cold inhibition assay, bacterial pellets were resuspended in 200 μl Brucella broth containing 500 nmol/l ^125I-labeled gastrin. Unlabeled gastrin in increasing concentrations (1250-5000 nmol/l) was added concurrently. Bacteria were incubated for 45 minutes at 37° C., after which they were extensively washed with PBS. Incorporation of ^125I-labeled gastrin was determined using a gamma counter. As controls, bacteria were incubated with ^125I-labeled gastrin (500 nmol/l) in the presence of CCK-8, pentagastrin, somatostatin or EGF at the indicated concentrations.

[3] = system: control bacteria (E. coli, S. pneumonia, C. jejuni); assay: Radioactive gastrin uptake by control bacteria; format: cell-based; conditions: 500 nmol/l, 45 min, 4° C. or 37° C.; autoradiography
Method: (§1) H. pylori (H.P.), E. coli (E.C.), S. pneumonia (S.P.) and C. jejuni (C.J.) bacteria were incubated for 45 minutes with ^125I-labeled gastrin. Incubation was at 4° C. or 37° C. Following initial incubation, proteinase K (P.K) was added for 30 minutes, after which bacteria were washed and blotted. One experiment representative of two.
(§2) To assess labeled gastrin uptake, bacterial pellets were resuspended in 200 μl Brucella broth containing 500 nmol/l ^125I-labeled gastrin (IncStar Pharmatrade). Incubation was at either 4° C. or 37° C. for 45 minutes. Bacteria were washed three times in PBS, resuspended and incubated for 30 minutes in Brucella broth containing proteinase K (Promega) at a concentration of 25 ng/ml. Subsequently, bacteria were washed, resuspended in 100 μl PBS, out of which 10 μl were blotted on nitrocellulose filters and autoradiography performed for 7 days. Incorporated ^125I was quantitated using a gamma counter.

[4] = system: H. pylori; assay: Radioactive gastrin uptake by H. pylori; format: cell-based, Helicobacter pylori
Method: as §1, §2

Row | Compound | effect on H. pylori growth (growth curve, OD) [1] | inhibition of labeled gastrin uptake by H. pylori [2] | labeling of control bacteria by labeled gastrin [3] | uptake (incorporation) of labeled gastrin by H. pylori ([4]; 500 nmol/l, 45 min, 37° C. (not at 4° C.), autoradiography) | radioactive counts incorporated by H. pylori before proteinase K incubation ([4]; before proteinase K incubation) | radioactive counts incorporated by H. pylori following incubation with proteinase K ([4]; following 30 min incubation with proteinase K)
1 | C[C@H](N)C(=O)NCC(=O)N[C@H]1CSSC[C@@H](C(=O)O)NC(=O)[C@H](CO)NC(=O)[C@H]([C@@H](C)O)NC(=O)[C@H](Cc2ccccc2)NC(=O)[C@H]([C@@H](C)O)NC(=O)[C@H](CCCCN)NC(=O)[C@H](Cc2c[nH]c3ccccc23)NC(=O)[C@H](Cc2ccccc2)NC(=O)[C@H](Cc2ccccc2)NC(=O)[C@H](CC(N)=O)NC(=O)[C@H](CCCCN)NC1=O [somatostatin, somatostatin 14] | none of the peptides had an effect | no inhibition | – | – | – | –
2 | ^125I-labeled gastrin: 125I-labeled gastrin (IncStar Pharmatrade) used as radioligand for uptake | – | – | no labeling | only H. pylori incubated at 37 °C incorporated | 311 CPM | 385 CPM
3 | cholecystokinin (CCK)-8 (fragment 26-33) (DYMGWMDF-NH2; ends and bridges not checked; UniProt P06307 96-103, looked up) [CCK-8, gastrin/CCKB receptor agonist peptide comprising Trp-Met-Asp-PheNH2] | did not stimulate bacterial growth; also recorded: none of the peptides had an effect | competed with gastrin on the binding to H. pylori; also recorded: inhibited labeled gastrin uptake in a dose-dependent manner | – | – | – | –
4 | epidermal growth factor (EGF) (NSDSECPLSHDGYCLHDGVCMYIEALDKYACNCVVGYIGERCQYRDLKWWELR; Epidermal growth factor; UniProt P01133 971-1023, looked up) [growth factor peptide found within the gastric lumen, control peptide] | none of the peptides had an effect | no inhibition | – | – | – | –
